# Tested on: primary adult human dermal fibroblasts (HDFs)
# Test: High-throughput compound screen for selective elimination of senescent cells (cell viability, Hoechst 33342 / SYTOX Green high content imaging) in early proliferating (EP) and deeply senescent (DS) fibroblasts
# Format: cell-based
# Set-up: key: senolytic: EP cell viability above the 89% EP threshold and DS cell viability below the 87% DS threshold for at least one concentration of the three serial concentrations; prolifolytic: test compounds which decreased EP cell viability below the 89% EP threshold but did not decrease DS cell viability below 87%; cytotoxic: Test compounds which decreased both EP and DS cell viability below their respective thresholds; non-toxic: test compounds which maintained both EP and DS viability above their respective thresholds
# Conditions: three serial concentrations, 48 hours incubation, read-out five days post compound addition, thresholds 89% EP, 87% DS, for at least one concentration
# Procedure: Actinomycin D, a drug widely reported to induce apoptosis in multiple cell types, was optimised for use as a positive 'senolytic control' for the high-throughput compound screen in EP (0.02µM) and DS (0.2µM) HDFs.
# In order to perform the high-throughput screen of the test compounds a thorough validation process of the assay was undertaken prior to experimental screening. For both EP and DS HDFs, the following steps were optimised: optimisation of cell seeding densities in 384-well plate format; validation and optimisation of Actinomycin D positive and DMSO-vehicle negative controls; optimisation of high-throughput image acquisition and high content analysis of Hoechst 33342 (ThermoFisher, UK) in combination with SYTOX Green (ThermoFisher, UK) using the INCell 2200 microscope (GE, UK) for cell death phenotypic read-outs; optimisation of liquid handling system protocols; plate uniformity assessments; and a "dry run" of all components in the assay. […]
# Following successful high-throughput compound screening of the test compounds in both EP and DS HDFs, a number of post-screen quality control checks were employed prior to hit detection. First, negative and positive control inter- and intra-plate cell number variability was assessed in order to identify potential systemic issues. […]
structure (smiles),measurement,value
O=C(O)Cn1ccc2ccccc21 [1-indoleacetic acid],hit classification based on EP and DS cell viability,senolytic

# Source: patent EP4168130B1, “USE OF INDOLE COMPOUNDS FOR TREATING SIGNS OF SKIN AGING” (Unilever IP Holdings B.V., priority 2020, dated 2021)
